Measurements from patent US12508270B2, “Treatment of behavioral impairment in developmental and epileptic encephalopathy” (Harmony Biosciences Management, Inc., priority 2019, dated 2025).

Test system: child and adolescent epilepsy patients with developmental and epileptic encephalopathies (DEE)
Test: Qualitative caregiver feedback at Week 26
Type: in vivo, human
Conditions: transdermal CBD
Source text: Qualitative assessment of improvement, worsening, or no change for the patient and family, such as but not limited to, daily activities, school attendance and alertness. In the examples, clinicians were asked to capture qualitative caregiver feedback at Week 26 with the following questions asked: (1) “Has anything improved for [patient name] and your family since [patient name] has been using the gel?”; (2) “Has anything got worse since for [patient name] and your family since [patient name] has been using the gel?”; and (3) “Let me just ask about a few specific things: Daily activities e.g. school attendance? If so how? Alertness? If so how?”.
Parents/caregivers were instructed to capture seizure frequency and type, and skin irritation scores, within daily diaries. Parents/caregivers also completed: • (1) The University of Washington Caregiver Stress Scale at Day 1, Week 14, and Week 26. • (2) Epilepsy and Learning Disabilities Quality of Life scale (ELDQOL—modified) at Day 1, Week 14 and Week 26. • (3) Sleep Disturbance Scale for Children (SDSC) at Day 1, Week 14 and Week 26. • (4) Vineland Adaptive Behavior Scale-3 (VABS-3) at Day 1 and Week 26. • (5) Parents/caregivers also completed a daily Likert-type “good day/bad day” questionnaire. • (6) Qualitative Caregiver Feedback at Week 26. Objectives […]

Question: How did the “qualitative assessments by caregivers” value turn out when `C=C(C)C1CCC(C)=CC1c1c(O)cc(CCCCC)cc1O` (stereo not shown) [CBD, 2-[3-methyl-6-(1-methylethenyl)-2-cyclohexen-1-yl]-5-pentyl-1,3-benzenediol] was run?
Answer: improved many behavioral problems
